Assay results from patent US12030876B2, “Aryl hydrocarbon receptor (AHR) agonists and uses thereof” (Ikena Oncology, Inc., priority 2019, dated 2024).
Where two headings read alike, the source gives them in different places.

Tests used:
[1] = target: T1, AHR (Homo sapiens, UniProt P35869); assay: DRE-Luciferase Reporter Assay, HepG2 (agonist); assay type: cell-based; details: read-out: DRE-Luc HepG2 - Agonist: Average EC50
T1 construct: endogenous in cells; host or cells: HepG2 (human), transfected with a DRE-luciferase reporter only
T1 sequence (P35869 11-848): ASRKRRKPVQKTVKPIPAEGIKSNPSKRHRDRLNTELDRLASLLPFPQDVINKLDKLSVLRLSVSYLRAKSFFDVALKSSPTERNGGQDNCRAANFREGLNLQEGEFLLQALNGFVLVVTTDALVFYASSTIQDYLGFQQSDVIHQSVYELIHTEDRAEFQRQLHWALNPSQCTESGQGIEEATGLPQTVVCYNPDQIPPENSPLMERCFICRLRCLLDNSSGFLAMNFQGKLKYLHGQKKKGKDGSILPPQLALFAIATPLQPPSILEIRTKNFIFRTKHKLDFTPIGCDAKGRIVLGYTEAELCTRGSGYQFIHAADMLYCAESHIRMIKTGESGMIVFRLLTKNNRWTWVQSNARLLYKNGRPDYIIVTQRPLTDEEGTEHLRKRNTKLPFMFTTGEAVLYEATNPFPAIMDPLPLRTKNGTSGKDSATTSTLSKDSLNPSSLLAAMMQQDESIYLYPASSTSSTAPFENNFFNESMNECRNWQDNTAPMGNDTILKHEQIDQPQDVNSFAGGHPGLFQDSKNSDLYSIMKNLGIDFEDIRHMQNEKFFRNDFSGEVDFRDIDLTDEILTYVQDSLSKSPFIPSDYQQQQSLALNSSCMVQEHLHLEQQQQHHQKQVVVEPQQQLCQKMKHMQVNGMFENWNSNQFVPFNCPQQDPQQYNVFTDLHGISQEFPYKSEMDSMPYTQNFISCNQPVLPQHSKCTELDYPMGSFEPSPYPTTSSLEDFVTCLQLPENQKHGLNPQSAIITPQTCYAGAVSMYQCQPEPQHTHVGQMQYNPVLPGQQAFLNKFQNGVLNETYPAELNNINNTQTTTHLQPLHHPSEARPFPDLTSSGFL
Procedure: DRE-Luciferase Reporter Assay
AHR binds to Dioxin Responsive Elements (DRE) upstream of genes that it activates. One measure of AHR activity is activation of a reporter gene, such as luciferase, downstream of one or multiple DRE elements. Luciferase activity reflects activation and inhibition of AHR in the cells expressing this reporter.
Murine Hepa1-6 or Hepa-1c1c7 or other murine cell line with a DRE-luciferase reporter either stably or transiently transfected are plated in media in plates (96-well, 384-well or other plates) and incubated overnight at 37 C in a CO2 incubator. Likewise, human HepG2 or other human cell line with a DRE-luciferase reporter either stably or transiently transfected are plated in media in plates (96-well, 384-well or other plates) and incubated overnight at 37 C in a CO2 incubator.
(§1) The next day, an AHR agonist compound is added. Cells are incubated for 6, 16 or 24 hours or another time point and then lysed for determination of luciferase activity as a read-out of the AHR activation. Luciferase can be measured with a commercial kit such as the Promega Luciferase kit or any kit or reagents that provide the luciferin substrate for measuring luciferase activity. The level of luciferase with only activating ligand (e.g. such as TCDD, kynurenine, ITE (2-(1H-indole-3-ylcarbonyl)-4-thiazolecarboxylic methyl ester), VAF347, BNF (beta-naphthoflavone), ICZ (6-formylindolo(3,2-b) carbazole or other AHR ligands) added is the maximum signal while the luciferase with no ligand is the minimum signal. EC50s can be determined as the concentration which activates half of the maximum luciferase activity.

[2] = target: T2, AHR (Mus musculus, UniProt P30561); assay: P450 CYP1A1 Luciferase Assay, Hepa1.6 (agonist); assay type: cell-based, murine; details: Hepa1.6, Table 2
T2 sequence (P30561 1-848 F348L/P471L): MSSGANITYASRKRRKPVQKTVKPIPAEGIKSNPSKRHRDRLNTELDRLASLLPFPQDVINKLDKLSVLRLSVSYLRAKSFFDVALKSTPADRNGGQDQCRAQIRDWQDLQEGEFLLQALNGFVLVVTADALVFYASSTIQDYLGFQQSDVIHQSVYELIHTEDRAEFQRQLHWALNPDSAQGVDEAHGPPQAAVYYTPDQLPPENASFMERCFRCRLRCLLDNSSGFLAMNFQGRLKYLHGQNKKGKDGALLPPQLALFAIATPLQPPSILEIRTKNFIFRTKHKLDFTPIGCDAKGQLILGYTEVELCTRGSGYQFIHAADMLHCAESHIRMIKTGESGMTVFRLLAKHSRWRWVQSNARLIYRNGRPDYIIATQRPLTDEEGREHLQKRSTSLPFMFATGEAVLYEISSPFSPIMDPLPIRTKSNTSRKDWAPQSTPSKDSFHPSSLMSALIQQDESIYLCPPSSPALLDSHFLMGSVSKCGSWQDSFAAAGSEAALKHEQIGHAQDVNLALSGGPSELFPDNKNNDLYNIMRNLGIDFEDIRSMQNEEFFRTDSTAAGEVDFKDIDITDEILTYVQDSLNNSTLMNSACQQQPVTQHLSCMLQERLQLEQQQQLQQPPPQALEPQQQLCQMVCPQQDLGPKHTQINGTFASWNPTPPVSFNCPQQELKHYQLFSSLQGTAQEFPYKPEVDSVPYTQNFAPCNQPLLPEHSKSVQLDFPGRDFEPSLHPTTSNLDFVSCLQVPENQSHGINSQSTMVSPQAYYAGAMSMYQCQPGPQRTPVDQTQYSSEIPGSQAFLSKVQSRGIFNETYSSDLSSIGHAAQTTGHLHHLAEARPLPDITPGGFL
Procedure: P450 CYP1A1 Luciferase Assay
AHR binds to Dioxin Responsive Elements (DRE) upstream of genes that it activates. One measure of AHR activity is P450 CYP1A1 protein levels determined by measuring CYP1A1 enzyme activity using a luminogenic CYP1A1 luciferin-based substrate. Luciferase activity will reflect CYP1A1 activity resulting from activation of AHR in the cells.
Murine Hepa1-6 or Hepa-1c1c7 or other murine cell line, human HepG2 or other human cell line are plated in media (96-well, 384-well or other plates) and incubated overnight at 37 C in a CO2 incubator.
as §1, with “lysed and incubated with a CYP1A1 luciferase-based substrate (e.g. Luciferin-CEE)” for “lysed”, “3, 6, or 12 hours of another time point. Determination” for “determination”, “CYP1A1 enzyme activity” for “the AHR activation. Luciferase”, “P450 Glo CYP1A1 detection reagent” for “Luciferase kit”, “provide” for “provide the luciferin substrate”

| EC50 ([1]; HepG2, Table 2) | EC50 [2] | EC50 ([1]; HepG2, Table 3) | Structure (SMILES) |
| --- | --- | --- | --- |
| < 10 nM | 10 to 100 nM | – | O=[N+]([O-])c1cccc(-c2csc(Nc3cccc(C(F)(F)F)c3)n2)c1 [Compound P-1] |
| < 10 nM | > 1000 nM | – | O=[N+]([O-])c1ccc(-c2csc(Nc3cccc(C(F)(F)F)c3)n2)cc1 [Compound P-3] |
| < 10 nM | 100 to 1000 nM | – | FC(F)(F)c1cccc(Nc2nc(-c3cccc(Br)c3)cs2)c1 [Compound P-4] |
| < 10 nM | > 1000 nM | – | Clc1cccc(Nc2nc(-c3cccc(Cl)c3)cs2)c1 [Compound P-5] |
| < 10 nM | > 1000 nM | – | FC(F)(F)c1cccc(Nc2nc(-c3ccncc3)cs2)c1 [Compound P-6] |
| < 10 nM | > 1000 nM | – | Clc1cccc(-c2csc(Nc3ccccc3)n2)c1 [Compound P-7] |
| < 10 nM | 100 to 1000 nM | – | FC(F)(F)c1cccc(Nc2nc(-c3cccnc3)cs2)c1 [Compound P-8] |
| < 10 nM | > 1000 nM | – | FC(F)(F)c1cccc(Nc2nc(-c3ccccn3)cs2)c1 [Compound P-9] |
| 10 to 100 nM | > 1000 nM | – | FC(F)(F)c1cccc(Nc2nc(-c3ccc(Cl)cc3)cs2)c1 [Compound P-10] |
| 10 to 100 nM | > 1000 nM | – | COc1cccc(-c2csc(Nc3cccc(C(F)(F)F)c3)n2)c1 [Compound P-11] |
| 10 to 100 nM | > 1000 nM | – | Clc1cccc(-c2csc(Nc3cccnc3)n2)c1 [Compound P-12] |
| 100 to 1000 nM | > 1000 nM | – | Clc1cccc(-c2csc(Nc3ccccn3)n2)c1 [Compound P-13] |
| < 10 nM | 10 to 100 nM | – | C[N+](C)(C)CCNC(=O)N(c1cccc(C(F)(F)F)c1)c1nc(-c2cccc([N+](=O)[O-])c2)cs1 [I-1] |
| < 10 nM | 100 to 1000 nM | – | C[N+](C)(CCNC(=O)N(c1cccc(C(F)(F)F)c1)c1nc(-c2cccc(Cl)c2)cs1)CCNC(=O)N(c1cccc(C(F)(F)F)c1)c1nc(-c2cccc(Cl)c2)cs1 [I-2] |
| < 10 nM | 100 to 1000 nM | – | C[N+](C)(CCO)CCNC(=O)N(c1cccc(C(F)(F)F)c1)c1nc(-c2cccc(Cl)c2)cs1 [I-3] |
| < 10 nM | 10 to 100 nM | – | C[N+](C)(CCO)CCNC(=O)N(c1cccc(C(F)(F)F)c1)c1nc(-c2cccc([N+](=O)[O-])c2)cs1 [I-4] |
| < 10 nM | > 1000 nM | – | FC(F)(F)c1cncc(Nc2nc(-c3cccc(Cl)c3)cs2)c1 [I-5] |
| – | – | 100 to 1000 nM | COC(=O)c1cc(-c2csc(Nc3cccc(C(F)(F)F)c3)n2)cc([N+](=O)[O-])c1 [I-108] |
| – | – | > 1000 nM | C[N+](C)(C)CCCNC(=O)N(c1cccc(C(F)(F)F)c1)c1nc(-c2ccc[n+]([O-])c2)cs1 [I-110] |
| – | – | > 1000 nM | O=C(O)c1cc(-c2csc(Nc3cccc(C(F)(F)F)c3)n2)c[n+]([O-])c1 [I-111] |
| – | – | > 1000 nM | COC(=O)c1cc(C#N)cc(-c2csc(Nc3cccc(C(F)(F)F)c3)n2)c1 [I-113] |
| – | – | > 1000 nM | N#Cc1cccc(-c2csc(Nc3cccc(C(=O)O)c3)n2)c1 [I-114] |
| – | – | > 1000 nM | N#Cc1cc(-c2csc(Nc3cccc(C(F)(F)F)c3)n2)cc([N+](=O)[O-])c1 [I-115] |

| EC50 ([1]; HepG2, Table 2) | EC50 [2] | EC50 ([1]; HepG2, Table 3) | Structure (SMILES) |
| --- | --- | --- | --- |
| – | – | > 1000 nM | O=C(O)c1cccc(Nc2nc(-c3ccc[n+]([O-])c3)cs2)c1 [I-116] |
| – | – | 100 to 1000 nM | C[N+](C)(C)CCNC(=O)N(c1cccc(C(F)(F)F)c1)c1nc(-c2ccc[n+]([O-])c2)cs1 [I-118] |
| – | – | < 10 nM | NC(=O)c1cccc(-c2csc(Nc3cccc(C(F)(F)F)n3)n2)c1 [I-119] |
| – | – | > 1000 nM | [O-][n+]1cccc(-c2csc(Nc3cncc(C(F)(F)F)c3)n2)c1 [I-122] |
| – | – | > 1000 nM | [O-][n+]1cccc(-c2cnc(Nc3cccc(C(F)(F)F)c3)o2)c1 [I-123] |
| – | – | > 1000 nM | N#Cc1cccc(-c2coc(Nc3cccc(C(F)(F)F)c3)n2)c1 [I-124] |
| – | – | > 1000 nM | O=c1cc(-c2cnc(Nc3cccc(C(F)(F)F)c3)o2)cc[nH]1 [I-126] |
| – | – | 100 to 1000 nM | COC(=O)c1cc(-c2csc(Nc3cccc(C(F)(F)F)c3)n2)c[n+]([O-])c1 [I-127] |
| – | – | 100 to 1000 nM | [O-][n+]1cccc(-c2csc(Nc3ccc(C(F)(F)F)cc3)n2)c1 [I-129] |
| – | – | > 1000 nM | [O-][n+]1cccc(-c2cc(Nc3cccc(C(F)(F)F)c3)no2)c1 [I-131] |
| – | – | > 1000 nM | CSc1cccc(-c2csc(Nc3cccc(C(F)(F)F)c3)n2)c1 [I-132] |
| – | – | 100 to 1000 nM | O=c1cc(-c2nc(Nc3cccc(C(F)(F)F)c3)no2)cc[nH]1 [I-133] |
| – | – | > 1000 nM | [O-][n+]1cccc(-c2nc(Nc3cccc(C(F)(F)F)c3)no2)c1 [I-134] |
| – | – | > 1000 nM | O=c1cc(-c2noc(Nc3cccc(C(F)(F)F)c3)n2)cc[nH]1 [I-135] |
| – | – | > 1000 nM | O=c1cc(-c2cc(Nc3cccc(C(F)(F)F)c3)on2)cc[nH]1 [I-137] |
| – | – | > 1000 nM | N#Cc1cccc(-c2cc(Nc3cccc(C(F)(F)F)c3)on2)c1 [I-138] |
| – | – | 100 to 1000 nM | O=c1cc(-c2cc(Nc3cccc(C(F)(F)F)c3)no2)cc[nH]1 [I-139] |
| – | – | > 1000 nM | [O-][n+]1cccc(-c2cc(Nc3cccc(C(F)(F)F)c3)on2)c1 [I-140] |
| – | – | > 1000 nM | COc1cc(-c2csc(Nc3cccc(SC)c3)n2)ccn1 [I-141] |
| – | – | > 1000 nM | CSc1cccc(Nc2nc(-c3cc[nH]c(=O)c3)cs2)c1 [I-142] |
| – | – | > 1000 nM | [O-][n+]1cccc(-c2noc(Nc3cccc(C(F)(F)F)c3)n2)c1 [I-150] |
| – | – | > 1000 nM | N#Cc1cccc(-c2cc(Nc3cccc(C(F)(F)F)c3)no2)c1 [I-151] |
